From patent publication US5670154A, “Reducing tyrosinase activity” (priority 1994, dated 1997)

Test system: tyrosinase
Assay: Tyrosinase inhibition, absorbance of Dopa-Chroma at 475 nm
Type: biochemical, mushroom
Conditions: for Inhibition (%): Inhibitory agent 0.15mg/ml, tyrosine substrate, 30 minutes at 37° C.; for Relative strength of tyrosinase inhibition among the catechins: comparison of the catechins of Table 1
Procedure: The level of tyrosinase, inhibition was measured according to the following method.
50 μl of the enzyme (8300 U/ml) (Source:mushroom, SIGMA) was added to a mixture of 250 μl of tyrosine substrate solution (0.3 mg/ml), 250 μl of the inhibiting (polyphenol) solution (0.5 mg/ml), 250 μl of Macllvain buffer solution and left for 30 minutes at 37° C. After this time the absorbance of the red colored Dopa-Chroma formed was measured at 475 nm.
Inhibition(%)=[(A-B)-(C-D)]/(A-B)×100
Where A, B, C, D represent the absorbance of solutions A, B, C and D as defined below, measured at 475 nm respectively.
A is the tyrosine+enzyme solution
B is the tyrosine solution
C is the tyrosine+enzyme+polyphenol solution
D is the tyrosine+polyphenol solution

| Compound | Inhibition (%) | Relative strength of tyrosinase inhibition among the catechins |
| --- | --- | --- |
| O=C(O[C@@H]1Cc2c(O)cc(O)cc2O[C@@H]1c1cc(O)c(O)c(O)c1)c1cc(O)c(O)c(O)c1 [Epigallocatechin gallate, (-)Epigallocatechin gallate] | 79.5 | strongest inhibitors of tyrosinase |
| Oc1cc(O)c2c(c1)O[C@H](c1cc(O)c(O)c(O)c1)[C@H](O)C2 [Epigallocatechin, (-)Epigallocatechin] | 17.5 |  |
| Oc1cc(O)c2c(c1)O[C@H](c1ccc(O)c(O)c1)[C@H](O)C2 [Epicatechin, (-)Epicatechin] | 11.9 |  |
| O=C(O[C@@H]1Cc2c(O)cc(O)cc2O[C@@H]1c1ccc(O)c(O)c1)c1cc(O)c(O)c(O)c1 [Epicatechin gallate, (-)Epicatechin gallate] | 95.1 | strongest inhibitors of tyrosinase |
